Data as given in US20220249525A1, “Fatty Acid Compounds for Prevention and Treatment of Neurodegenerative Disorders” (T OMEGA AS, priority 2019, published 2022).

Experiments:
Type in all cases: cell-based
[1] = tested on: MOLM-13 human acute leukemia cells; test: WST-1 viability of MOLM-13 cells; settings: for Abs450 nm (WST-1 viability): complexed to BSA
Protocol: MOLM-13 suspension cells were diluted and added to 96-well plates (15.000 cells/well).
The modified fatty acids TTA, tr-TTA, TDG (TGH) and tr-TDG (tr-TGH) were complexed to bovine serum albumin (BSA), and 10-fold dilutions of the fatty acids or BSA control were added to the wells in duplicate. Two plates were run in parallel, and WST-1 was added to the cells after 48 (plate 1) and 72 hours (plate 2). Absorbance at 450 nm measured to assess viability of the cells.

[2] = tested on: HeLaNRF1/c4 reporter cells; test: Resazurin conversion assay in HeLaNRF1/c4 reporter cells; settings: test compounds 30 μM and 60 μM, long treatment
Protocol: Non-small cell lung cancer cells, HCC827 (ATCC) were cultured in RPMI-1640 Glutamax medium (Sigma-Aldrich St. Louis, Mo., USA), under conventional culture conditions. Media was supplemented with 10% Fetal Bovine Serum (FBS), 1% glutamine and 1% streptomycin/penicillin (Sigma-Aldrich). HeLaNRF1/c4 reporter cells were cultured in Dulbecco's Modified Eagle's Medium (DMEM) supplemented with 10% FBS, 2 mM L-Glutamine, 100 u/ml penicillin/streptomycin (Sigma-Aldrich,). Incubation was done at 37° C. in 5% CO2.
Cell viability/proliferation was determined by the resazurin conversion assay. A total of 4000 cells were seeded in each of the 96-well plates in 100 μl of medium. After 3 hours of incubation, 100 μl of fresh medium with respective concentration of the desired compound or controls were added. Resazurin solution (Sigma-Aldrich) was added (10%, v/v in PBS) after 1 or 3 day treatment, followed by 3 hour incubation at 37° C. and 5% CO2. Resazurin fluorescence (excitation, 540 nm; emission, 590 nm) was measured and measurements were corrected for background signals. […] Relative viability was calculated from percent fluorescence relative to DMSO-treated control wells.
In order to investigate if some of the compounds induce metabolic adaptations involving mitochondrial biogenesis, we employed the HeLaNRF1/c4 reporter cells in which activation of the transcription factor NRF1 triggers expression of GFP. Since adaptations of mitochondrial biogenesis are known to require some days to develop, we used a relatively low dosage (30 μM and 60 μM) of the compounds, to allow longer treatment period compared to the previous short term experiments.

[3] = tested on: HeLaNRF1/c4 reporter cells; test: Gene expression (qPCR) in HeLaNRF1/c4 reporter cells; settings: long-term treatment
Protocol: The HeLaNRF1/c4 reporter cells were employed to investigate effects of the modified fatty acids on NRF1-regulated mitochondrial biogenesis. The cells (250,000) were seeded in T75 flasks and incubated for 3 hours to allow attachment. The compounds were dissolved in DMSO and diluted in culture medium to provide the final concentration. DMSO at a concentration equivalent to the highest compound concentration was added to control cultures. Resveratrol and AICAR were used as positive controls. Resveratrol has not previously been tested in this reporter model, but we found it relevant to include it for purposes of experimental and mechanistic comparisons. After 3 days of treatment the media was replaced with fresh media containing the corresponding compound. On day 5, the cells were harvested and the cultures split into three fractions: One fraction was used for detection of mitoGFP expression by flow cytometry, to assess effects on NRF-1 regulated mitochondrial biogenesis. Flow cytometry analysis was performed as previously described. Another fraction was used for extraction of RNA and subsequent gene expression analysis using quantitative PCR (see below). The last fraction was employed to investigate effects on mitochondrial respiratory function by extracellular flux analysis (described above). The experiment was replicated three times.
Total RNA was extracted from harvested cells (RNAeasy kit Qiagen, Hilden, Germany). The RNA content was quantified on Nanodrop 1000 Spectrophotometer (Thermo Scientific). From 1 μg total RNA, cDNA was synthesized using High-Capacity Reverse Transcription Kit (Applied Biosystems, Carlsbad, Calif., US). Gene quantification was done using TaqMan probes for gene expression assays (Applied Biosystems). Probes used were: PGC1α (PPARG coactivator 1α), Hs00173304_m1; HIF1α (hypoxia inducible factor 1α), Hs00153153_m1; PDK1 (pyruvate dehydrogenase kinase 1), Hs01561847_m1; PDK4, (pyruvate dehydrogenase kinase 4), Hs01037712_m1; SIRT4 (sirtuin 4) Hs01015516_g1; ACOX1 (acyl-CoA oxidase 1) Hs01074241_m1; as reference genes, we used; Eukaryotic 18S rRNA Hs99999901_s1; actin beta Hs99999903_m1. Fold change was calculated as geometric mean of ΔΔCt of the two reference genes.

## CCCCCCCCCCCCCCNCC(=O)O [N-TTA, N-tetradecylglycine]
[1]; 48 hours, 0.0625 mM
  Abs450 nm (WST-1 viability): 0.9307
[1]; 48 hours, 0.125 mM
  Abs450 nm (WST-1 viability): 0.4765
[1]; 48 hours, 0.25 mM
  Abs450 nm (WST-1 viability): 0.5423
[1]; 48 hours, 0.5 mM
  Abs450 nm (WST-1 viability): 0.3207
[1]; 48 hours, 1 mM
  Abs450 nm (WST-1 viability): 0.257
[1]; 48 hours, 2 mM
  Abs450 nm (WST-1 viability): 0.3163
[1]; 72 hours, 0.03125 mM
  Abs450 nm (WST-1 viability): 0.4491
[1]; 72 hours, 0.0625 mM
  Abs450 nm (WST-1 viability): 0.8073
[1]; 72 hours, 0.125 mM
  Abs450 nm (WST-1 viability): 0.4813
[1]; 72 hours, 0.25 mM
  Abs450 nm (WST-1 viability): 0.203
[1]; 72 hours, 0.5 mM
  Abs450 nm (WST-1 viability): 0.175
[1]; 72 hours, 1 mM
  Abs450 nm (WST-1 viability): 0.1893
[1]; 72 hours, 2 mM
  Abs450 nm (WST-1 viability): 0.2359
[1]; MOLM-13, compared with TTA and tr-TTA
  toxicity to leukemic cells: toxic to leukemic cells at a lower concentration than TTA and tr-TTA
[2]
  resazurin conversion: dose-dependent reduction
[3]
  PDK4 expression: significantly increased
[3]; vs control
  PGC1α expression: significant increase
